# Laboratory results from the supplement of paper PMC10307832.
# Compound: CCN1C(=O)C2=CC(=C(N=C2N(C1=O)C3CC3)N)C(=O)N + O=C(CCCCCCC(=O)Nc1ccccc1)NO [Vorinostat] (partner 1 µM)
# Test: relative viability (nuclei count vs DMSO), 5 days (fraction); higher = more cells survive
# Procedure, shortened: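 Dosing by pin tool came one day after lung cancer cell lines were seeded in 1536-well plates, using either one drug or a fixed anchor-drug dose plus five library-drug doses (not always all listed) in √10 steps. After 5 days, nuclei were counted on 4× images. Relative viability is treated-well nuclei count divided by vehicle-well nuclei count, and values are medians of duplicate plates.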
Cell Line,relative viability (first compound 0.253 µM),relative viability (first compound 0.8 µM),relative viability (first compound 2.53 µM),relative viability (first compound 8 µM)
201T,0.92,0.982,0.945,0.973
A-427,0.923,0.926,0.842,0.852
ABC-1,1.11,–,1.81,1.11
BEN,0.608,0.641,0.63,0.625
CAL-12T,0.771,0.642,0.659,0.803
COR-L23,0.413,0.393,0.446,0.343
COR-L 105,0.902,0.779,0.688,0.819
ChaGo-K-1,0.793,0.764,0.72,0.748
EKVX,0.881,0.589,0.716,0.594
EMC-BAC-2,0.992,–,0.782,0.67
EPLC-272H,–,0.538,0.411,0.477
H3255,0.838,0.688,0.819,0.831
HARA,0.563,0.5,0.57,0.552
HCC-15,0.885,0.785,0.869,0.815
HCC-44,1.13,1.05,1.06,1.04
HCC-78,0.451,0.437,0.437,0.462
HCC-366,0.363,0.384,0.297,0.277
HCC-827,0.498,0.709,1,0.819
HOP-62,0.622,0.71,0.58,0.579
IA-LM,0.983,0.873,0.905,1.1
LC-2-ad,0.663,0.754,0.698,0.721
LCLC-97TM1,0.711,0.752,0.634,0.773
LCLC-103H,0.798,0.806,0.761,0.817
LK-2,0.286,0.377,0.307,0.302

Cell Line,relative viability (first compound 0.253 µM),relative viability (first compound 0.8 µM),relative viability (first compound 2.53 µM),relative viability (first compound 8 µM)
LOU-NH91,0.863,0.848,0.948,0.903
LU99A,0.471,0.493,0.471,0.469
LXF-289,0.798,0.744,0.825,0.787
NCI-H23,0.548,0.715,0.58,0.635
NCI-H322M,1.04,0.758,1.04,0.931
NCI-H358,0.788,0.625,0.628,0.863
NCI-H441,0.83,0.851,0.994,0.906
NCI-H460,0.788,0.74,0.625,0.688
NCI-H520,0.719,0.655,0.717,0.817
NCI-H522,0.924,0.81,0.924,1.01
NCI-H596,0.582,0.626,0.614,0.571
NCI-H647,0.448,0.477,0.557,0.862
NCI-H650,0.565,0.313,0.408,0.421
NCI-H661,0.758,0.788,0.748,0.803
NCI-H727,1.27,1.11,1.26,1.07
NCI-H838,0.756,0.694,0.692,0.752
NCI-H1355,0.626,0.662,0.636,0.674
NCI-H1395,0.716,0.549,0.912,0.674
NCI-H1437,0.845,0.804,0.756,0.808
NCI-H1650,0.562,0.614,0.494,0.622
NCI-H1651,0.571,0.493,0.55,0.462
NCI-H1666,1.05,0.99,1,1.09
NCI-H1734,0.744,0.762,0.811,0.784
NCI-H1755,0.743,0.722,0.76,0.719

Cell Line,relative viability (first compound 0.253 µM),relative viability (first compound 0.8 µM),relative viability (first compound 2.53 µM),relative viability (first compound 8 µM)
NCI-H1793,0.665,0.747,0.797,0.805
NCI-H1915,0.49,0.546,0.493,0.436
NCI-H1944,0.641,0.51,0.51,0.553
NCI-H1975,0.733,0.772,0.697,0.757
NCI-H1993,0.0267,0.735,0.76,0.853
NCI-H2009,0.732,0.647,0.62,0.663
NCI-H2023,0.628,0.58,0.68,0.712
NCI-H2085,0.767,0.764,0.747,0.782
NCI-H2087,0.634,1.23,0.911,0.676
NCI-H2126,0.846,0.803,0.765,0.797
NCI-H2170,0.881,0.791,0.869,0.78
NCI-H2228,0.933,0.572,0.676,0.679
NCI-H2347,0.634,0.462,0.623,0.639
NCI-H2405,1.21,–,1.26,1.14
NCI-H3122,0.912,0.975,0.968,0.988
PC-3 [JPC-3],0.93,–,1.22,1.08
PC-14,0.621,0.743,0.679,0.779
RERF-LC-KJ,0.678,0.737,0.807,0.838
SK-LU-1,0.699,0.755,0.773,0.876
SK-MES-1,1.04,1.01,1.04,1.08
SW 900,0.434,0.582,0.524,0.538
SW 1573,0.824,0.848,0.624,0.682
UMC-11,0.415,0.34,0.373,0.408
